Reference: patent US9408852B2, “Method of lowering serum uric acid levels with (S)-tofisopam” (PHARMOS CORPORATION, priority 2011, dated 2016)
Where “and” joins values, the source holds several entries; their conditions need not be identical. Identical values can stand only once.

Assays:
Format in all cases: in vivo, human
clearance creatinine = experiment: Creatinine clearance in patients with hyperuricemia and gout (Example 9); conditions: 50 mg qd Day 1 and 7, tid Days 2 to 6
Description: (§1) The study lasted 7 days, and patients were treated with placebo or 50 mg of enantiomerically-pure (S)-tofisopam once a day (qd) on Day 1 and Day 7 of the study, and with placebo or 50 mg of enantiomerically-pure (S)-tofisopam three times a day (tid) for Days 2 to 6 of the study. […] In Table 8, days indicated with a minus sign (e.g. D-1) indicate the time point corresponding to that number of days before treatment was initiated. For example, D-14 is the time point fourteen days before treatment was initiated.

serum uric acid [1] = experiment: Serum uric acid in male and female patients with hyperuricemia and gout, 7 days (Example 7)
Description: as §1, with “6,” for “8,”

serum uric acid [2] = experiment: Serum uric acid after single oral doses in male healthy volunteers (Example 2); conditions: for Mean CFB (change from baseline) in uric acid levels: male healthy volunteers, n = 6
Description: Male healthy volunteers received 50-400 mg enantiomerically-pure (S)-tofisopam by oral administration. Mean serum uric acid values fell by 23% to 30% within 4 hours after receiving single doses (Table 1).

[3] = test system: urinary uric acid excretion; experiment: 24 h urinary uric acid excretion in patients with hyperuricemia and gout (Example 9); conditions: for Percent change in Uu (mg/24 h), amount of uric acid excreted into the urine over 24 hours / Percent change in Uu (mg/dL), concentration of uric acid in 24 hour urine: 50 mg qd Day 1 and 7, tid Days 2 to 6
Description: as §1

[4] = individual patient (P#), [D 1 to D 2] from [D −2 to D −1]
[5] = individual patient (P#), [D 6 to D 7] from [D 1 to D 2]
[6] = mean (M) of patients, [D 1 to D 2] from [D −2 to D −1]
[7] = 50 mg qd Day 1 and Day 7, tid Days 2 to 6, Day 1 6 h (Day 1 0 h = 0.0), hyperuricemia and gout
[8] = 50 mg qd Day 1 and Day 7, tid Days 2 to 6, Day 1 to Day 2: Day 1 0 h + Day 2, hyperuricemia and gout
[9] = 50 mg qd Day 1 and Day 7, tid Days 2 to 6, Day 2 (Day 1 0 h = 0.0), hyperuricemia and gout
[10] = 50 mg qd Day 1 and Day 7, tid Days 2 to 6, Day 3 (Day 1 0 h = 0.0), hyperuricemia and gout
[11] = 50 mg qd Day 1 and Day 7, tid Days 2 to 6, Day 4 (Day 1 0 h = 0.0), hyperuricemia and gout
[12] = 50 mg qd Day 1 and Day 7, tid Days 2 to 6, Day 5 (Day 1 0 h = 0.0), hyperuricemia and gout
[13] = 50 mg qd Day 1 and Day 7, tid Days 2 to 6, Day 6 (Day 1 0 h = 0.0), hyperuricemia and gout
[14] = 50 mg qd Day 1 and Day 7, tid Days 2 to 6, Day 6 to Day 7: Day 6 + Day 7, hyperuricemia and gout
[15] = 50 mg qd Day 1 and Day 7, tid Days 2 to 6, Day 7 (Day 1 0 h = 0.0), hyperuricemia and gout
[16] = 50 mg qd Day 1 and Day 7, tid Days 2 to 6, Day 8 (after treatment stopped), hyperuricemia and gout
[17] = 50 mg qd Day 1 and Day 7, tid Days 2 to 6, Day 15 (after treatment stopped), hyperuricemia and gout

## CC[C@@H]1C(C)=NN=C(c2ccc(OC)c(OC)c2)c2cc(OC)c(OC)cc21 [(S)-tofisopam]
Clearance creatinine; [4]
  Percent change in CLc (clearance creatinine): 35.1% and 2.5% and −24.4% and −14.2% and 16.2% and −22.4% and 0.7% and −4.1% and −2.7% and −1.3% and −11.8% and 11.2%
Clearance creatinine; [5]
  Percent change in CLc (clearance creatinine): −12.7% and 15.2% and 21.1% and 14.0% and 8.9% and 0.0% (2×) and −3.9% and 14.3% and 0.7% and −23.7%
Clearance creatinine; [6]
  Percent change in CLc (clearance creatinine): −1.3%
Clearance creatinine; mean (M) of patients, [D 6 to D 7] from [D 1 to D 2]
  Percent change in CLc (clearance creatinine): 3.1%
Serum uric acid [1]; [7]
  Percent change in serum uric acid, individual patients (P# 1-13): −12.0% and 4.1% and −4.3% and −8.0% and −12.5% and −8.1% and −13.9% and −8.2% and −5.6%
  Percent change in serum uric acid, mean (M) of 13 patients: −6.9%
Serum uric acid [1]; [8]
  Percent change in serum uric acid, individual patients (P# 1-13): −10.7% and −9.6% and −4.3% and −7.3% and −8.9% and −8.1% and −12.0% and −2.6% and −3.5%
  Percent change in serum uric acid, mean (M) of 13 patients: −6.8%
Serum uric acid [1]; [9]
  Percent change in serum uric acid, individual patients (P# 1-13): −21.3% and −19.2% and −8.6% and −14.7% and −17.7% and −16.2% and −24.1% and −5.2% and −7.0%
  Percent change in serum uric acid, mean (M) of 13 patients: −13.6%
Serum uric acid [1]; [10]
  Percent change in serum uric acid, individual patients (P# 1-13): −32.0% and −43.8% and −14.3% and −30.7% and −36.5% and −18.9% and −45.6% and −12.4% and −16.9% and −9.6%
  Percent change in serum uric acid, mean (M) of 13 patients: −26.6%
Serum uric acid [1]; [11]
  Percent change in serum uric acid, individual patients (P# 1-13): −38.7% and −54.8% and −27.1% and −42.7% and −43.8% and −37.8% and −54.4% and −59.8% and −35.2%
  Percent change in serum uric acid, mean (M) of 13 patients: −41.8%
Serum uric acid [1]; [12]
  Percent change in serum uric acid, individual patients (P# 1-13): −48.0% and −52.1% and −40.0% and −36.0% and −45.8% and −33.8% and −50.6% and −25.8% and −39.4%
  Percent change in serum uric acid, mean (M) of 13 patients: −41.1%
Serum uric acid [1]; [13]
  Percent change in serum uric acid, individual patients (P# 1-13): −40.0% and −53.4% and −31.4% and −64.0% and −45.8% and −31.1% and −50.6% and −28.9% and −39.4%
  Percent change in serum uric acid, mean (M) of 13 patients: −43.1%
Serum uric acid [1]; [14]
  Percent change in serum uric acid, individual patients (P# 1-13): −44.0% and −56.2% and −36.4% and −56.0% and −46.9% and −31.1% and −53.2% and −34.5% and −40.8%
  Percent change in serum uric acid, mean (M) of 13 patients: −45.1%
Serum uric acid [1]; [15]
  Percent change in serum uric acid, individual patients (P# 1-13): −48.0% (2×) and −58.9% and −41.4% and −47.9% and −31.1% and −55.7% and −40.2% and −42.3%
  Percent change in serum uric acid, mean (M) of 13 patients: −47.1%
Serum uric acid [1]; [16]
  Percent change in serum uric acid, individual patients (P# 1-13): −36.0% (2×) and −46.6% and −32.9% and −41.7% and −24.3% and −45.6% and −30.9% and −26.8%
  Percent change in serum uric acid, mean (M) of 13 patients: −35.5%
Serum uric acid [1]; [17]
  Percent change in serum uric acid, individual patients (P# 1-13): 36.0% and 17.8% and 25.7% and −13.3% and 1.0% and 39.2% and 30.4% and 10.3% and 26.8%
  Percent change in serum uric acid, mean (M) of 13 patients: 18.9%
Serum uric acid [1]; 50 mg qd Day 1 and Day 7, tid Days 2 to 6, male and female patients with hyperuricemia and gout
  Effect on serum uric acid levels: decreases
Serum uric acid [1]; after 7 days of 50 mg treatment, hyperuricemia and gout
  Serum uric acid levels once treatment was stopped after 7 days: began to increase again
Serum uric acid [2]; single oral dose 50 mg, 4 hours after dose
  Mean CFB (change from baseline) in uric acid levels: −23%
Serum uric acid [2]; single oral dose 50 mg, 24 hours after dose
  Mean CFB (change from baseline) in uric acid levels: −25%
Serum uric acid [2]; single oral dose 50 mg, 48 hours after dose
  Mean CFB (change from baseline) in uric acid levels: −24%
Serum uric acid [2]; single oral dose 100 mg, 4 hours after dose
  Mean CFB (change from baseline) in uric acid levels: −25%
Serum uric acid [2]; single oral dose 100 mg, 24 hours after dose
  Mean CFB (change from baseline) in uric acid levels: −28%
Serum uric acid [2]; single oral dose 100 mg, 48 hours after dose
  Mean CFB (change from baseline) in uric acid levels: −29%
Serum uric acid [2]; single oral dose 200 mg, 4 hours after dose
  Mean CFB (change from baseline) in uric acid levels: −29%
Serum uric acid [2]; single oral dose 200 mg, 24 hours after dose
  Mean CFB (change from baseline) in uric acid levels: −36%
Serum uric acid [2]; single oral dose 200 mg, 48 hours after dose
  Mean CFB (change from baseline) in uric acid levels: −37%
Serum uric acid [2]; single oral dose 300 mg, 4 hours after dose
  Mean CFB (change from baseline) in uric acid levels: −30%
Serum uric acid [2]; single oral dose 300 mg, 24 hours after dose
  Mean CFB (change from baseline) in uric acid levels: −48%
Serum uric acid [2]; single oral dose 300 mg, 48 hours after dose
  Mean CFB (change from baseline) in uric acid levels: −49%
Serum uric acid [2]; single oral dose 400 mg, 4 hours after dose
  Mean CFB (change from baseline) in uric acid levels: −27%
Serum uric acid [2]; single oral dose 400 mg, 24 hours after dose
  Mean CFB (change from baseline) in uric acid levels: −48%
Serum uric acid [2]; single oral dose 400 mg, 48 hours after dose
  Mean CFB (change from baseline) in uric acid levels: −45%
Serum uric acid [2]; single oral doses 50-400 mg, 4, 24 and 48 hours
  Time course of uric acid levels after single dose: decreased further up to the 24-hour timepoint, with no further decrease at 48 hours
Serum uric acid [2]; single oral doses 50-400 mg, slightly lower decreases at 400 mg
  Dose relation of decreases in uric acid levels: dose-related up to the 300 mg dose
[3]; after initiation of treatment, 50 mg qd Day 1 and Day 7, tid Days 2 to 6, hyperuricemia and gout
  Uric acid excretion levels in the urine: increased
[3]; [4]
  Percent change in Uu (mg/24 h), amount of uric acid excreted into the urine over 24 hours: 14.4% and 6.5% and −29.9% and 12.0% and −55.4% and 85.4% and 25.1% and 99.2% and 43.4% and −30.9% and −7.1% and 27.8%
  Percent change in Uu (mg/dL), concentration of uric acid in 24 hour urine: 32.7% and −13.4% and 4.0% and 15.5% and −77.6% and 91.7% and 106.9% and 71.3% and 13.1% and −24.6% and −32.7% and 54.8%
[3]; [5]
  Percent change in Uu (mg/24 h), amount of uric acid excreted into the urine over 24 hours: 4.6% and 21.3% and 43.8% and 18.3% and 1.0% and −7.0% and −11.6% and −18.9% and 7.9% and −13.3% and −22.8%
  Percent change in Uu (mg/dL), concentration of uric acid in 24 hour urine: −15.6% and 1.7% and −17.5% and −15.9% and −20.8% and −40.4% and −48.3% and −49.3% and −9.5% and −14.3% and −39.5%
[3]; [6]
  Percent change in Uu (mg/24 h), amount of uric acid excreted into the urine over 24 hours: 15.9%
  Percent change in Uu (mg/dL), concentration of uric acid in 24 hour urine: 20.1%
